The values that follow come from ChEMBL document CHEMBL1148261, “Pharmacophore-based search, synthesis, and biological evaluation of anthranilic amides as novel blockers of the Kv1.5 channel” (Bioorg Med Chem Lett, 2004).

For data set [1], the target named is T1, Potassium voltage-gated channel subfamily A member 5 (Homo sapiens, UniProt P22460). Put plainly: Inhibitory effect against human voltage-gated potassium channel subunit Kv1.5 expressed in Xenopus oocytes. It is filed as cell-based, Oocyte.
T1 sequence (P22460 whole entry): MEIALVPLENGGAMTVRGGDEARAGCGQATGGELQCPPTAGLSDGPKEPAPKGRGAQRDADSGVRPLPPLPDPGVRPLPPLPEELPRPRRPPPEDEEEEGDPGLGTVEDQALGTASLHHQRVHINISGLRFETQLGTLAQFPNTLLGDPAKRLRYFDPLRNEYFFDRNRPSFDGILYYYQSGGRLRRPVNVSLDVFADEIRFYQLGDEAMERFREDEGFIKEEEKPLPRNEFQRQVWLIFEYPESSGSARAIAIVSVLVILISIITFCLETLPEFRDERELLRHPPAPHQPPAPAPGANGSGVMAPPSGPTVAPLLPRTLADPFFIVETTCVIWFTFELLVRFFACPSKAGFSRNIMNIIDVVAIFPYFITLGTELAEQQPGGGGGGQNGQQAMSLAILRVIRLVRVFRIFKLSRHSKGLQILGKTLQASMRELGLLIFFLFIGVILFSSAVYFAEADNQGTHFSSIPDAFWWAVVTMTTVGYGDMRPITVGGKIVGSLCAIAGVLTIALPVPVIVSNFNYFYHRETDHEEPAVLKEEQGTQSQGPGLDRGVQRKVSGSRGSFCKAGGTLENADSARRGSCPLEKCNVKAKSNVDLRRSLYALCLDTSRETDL
In data set [2] the target is T1, Potassium voltage-gated channel subfamily A member 5. Put plainly: Percent inhibition of human voltage-gated potassium channel subunit Kv1.5 expressed in Xenopus oocytes at 10 uM. It is filed as cell-based. The note with it: Oocyte.
Data set [3] is described as follows: pKa value was determined. It is filed as physicochemical.
Data set [4] can be described thus: Oral bioavailability of compound in rats. Conditions: rat, in vivo. It is filed as ADME, organism-based.

For orientation: IC50 means the concentration needed to halve the response being measured. A high value points to weaker potency. What is called inhibition is the drop in the measured response relative to a control, in per cent. A high value points to strong suppression. What is called pKa is the negative logarithm of the acid dissociation constant. The term bioavailability denotes the share of a dose that reaches the circulation, judged against a reference dose that is usually intravenous.

Regarding `CC[C@H](NC(=O)c1ccccc1NS(=O)(=O)c1cccc2cnccc12)c1ccccc1`, the IC50 in data set [1] was 9 µM.

Take `CC[C@H](NC(=O)c1cc(OCC2CC2)ccc1NS(=O)(=O)c1ccc(C)cc1)c1ccccc1`: the inhibition in data set [2] was found to be 41%.

`CC[C@H](NC(=O)c1cc(C(C)=O)ccc1NS(=O)(=O)c1ccc(C)cc1)c1ccccc1`: the IC50 in data set [1] is 3.8 µM.

Regarding `CC[C@H](NC(=O)c1ccccc1NS(=O)(=O)c1ccccc1)c1ccccc1`, the pKa in data set [3] came to 6.9. Moreover, inhibition in data set [1] was half-maximal at 1.3 µM (IC50).

As to `O=C(NCc1ccccc1)c1cc(Cl)ccc1NS(=O)(=O)c1ccc(Cl)cc1`, in data set [1], half-maximal inhibition (IC50) required 5.6 µM.

For `Cc1ccc(S(=O)(=O)Nc2ccccc2C(=O)N(Cc2cccnc2)Cc2cccnc2)cc1`, half-maximal inhibition in data set [1] (IC50) required 2.2 µM.

In data set [2], `CC[C@H](NC(=O)c1cc(OCN(C)C)ccc1NS(=O)(=O)c1ccc(C)cc1)c1ccccc1` had an inhibition of 15%.

`Cc1ccc(S(=O)(=O)Nc2ccccc2C(=O)NC(c2ccccc2)C2CC2)cc1` (configuration not stated) gave an IC50 in data set [1] of 1.6 µM.

In turn, `CC[C@H](NC(=O)c1ccccc1NS(=O)(=O)c1ccc(C(F)(F)F)cc1)c1ccccc1` registered a pKa in data set [3] of 6.2. Moreover, in data set [1], the half-maximal inhibitory concentration (IC50) was 4 µM.

Regarding `Cc1ccc(S(=O)(=O)Nc2ccccc2C(=O)N(Cc2ccccc2)Cc2cccnc2)cc1`, in data set [4], the bioavailability amounted to 43%.

The compound `CC[C@H](NC(=O)c1cc(F)ccc1NS(=O)(=O)c1ccc(Cl)cc1)c1ccccc1` showed a pKa in data set [3] of 6.5. The compound also had an IC50 in data set [1] of 3.8 µM.

On to `CC[C@H](NC(=O)c1ccccc1NS(=O)(=O)c1ccc(C)cc1)c1ccccc1`, for which the pKa in data set [3] is 7.2. In data set [1], this compound had a concentration for half-maximal inhibition (IC50) of 0.7 µM.

For the compound `Cc1ccc(S(=O)(=O)Nc2ccccc2C(=O)NCCc2ccccc2)cc1`, the IC50 in data set [1] is 6.7 µM.

Take `CC[C@H](NC(=O)c1cc(OC)ccc1NS(=O)(=O)c1ccc(C)cc1)c1ccccc1`: the pKa in data set [3] amounted to 7.5.

`CC[C@H](NC(=O)c1ccccc1NS(=O)(=O)CC)c1ccccc1` showed an IC50 in data set [1] of 10 µM.

As to `CC[C@H](NC(=O)c1cc(OCCOC)ccc1NS(=O)(=O)c1ccc(C)cc1)c1ccccc1`, in data set [2], the inhibition was 46%.

`CC[C@H](NC(=O)c1ccccc1NS(=O)(=O)c1cccc2cccnc12)c1ccccc1` came in with an IC50 in data set [1] of 0.6 µM.

Take `CC[C@H](NC(=O)c1ccccc1NS(=O)(=O)c1cccnc1)c1ccccc1`: the inhibition in data set [2] came out at 36%.
